In article PMC2631656 (Journal of medicinal chemistry, 2008):
Read-outs that look alike come from different tables or passages of the source.

What was measured:
[1] = test system: PSMA^+ PC-3 PIP and PC-3 flu xenografts; test: PET-CT imaging, PC-3 PIP and PC-3 flu xenografts; assay type: in vivo; conditions: dynamic scan 94-120 min p.i., i.v.
[2] = test system: PC-3 PIP (PSMA^+) and PC-3 flu (PSMA^-) xenografts

O=C(O)CCC(NC(=O)NC(CCCCNC(=O)c1ccc([18F])cc1)C(=O)O)C(=O)O (stereo not drawn) [Compound [^18F]6, 2-[3-[1-carboxy-5-(4-[^18F]fluoro-benzoylamino)-pentyl]-ureido]-pentanedioic acid]
uptake pattern on PET [1]: easily observed within PSMA^+ PIP tumor, none within flu tumor, high renal uptake and a modest degree of liver uptake
uptake in PC-3 PIP tumor ([2]; 30 min p.i.): 8.6 ± 3.1 % ID/g
uptake in PC-3 flu tumor ([2]; 30 min p.i.): 0.8 ± 0.3 % ID/g
uptake in bladder ([2]; 30 min p.i.): 6.8 ± 3.5 % ID/g
uptake in blood ([2]; 30 min p.i.): 2.5 ± 1.7 % ID/g
uptake in heart ([2]; 30 min p.i.): 0.8 ± 0.1 % ID/g
uptake in kidney ([2]; 30 min p.i.): 72 ± 3 % ID/g
uptake in large int. ([2]; 30 min p.i.): 1.2 ± 0.8 % ID/g
uptake in liver ([2]; 30 min p.i.): 8.7 ± 1.8 % ID/g
uptake in lung ([2]; 30 min p.i.): 1.7 ± 0.3 % ID/g
uptake in muscle ([2]; 30 min p.i.): 2.4 ± 3.1 % ID/g
uptake in pancreas ([2]; 30 min p.i.): 0.8± 0.1 % ID/g
uptake in small int. ([2]; 30 min p.i.): 1.7 ± 0.7 % ID/g
uptake in spleen ([2]; 30 min p.i.): 12.7 ± 0.4 % ID/g
uptake in stomach ([2]; 30 min p.i.): 0.8 ± 0.1 % ID/g
uptake in PC-3 PIP tumor ([2]; 60 min p.i.): 6.4 ± 0.9 % ID/g
uptake in bladder ([2]; 60 min p.i.): 17 ± 21 % ID/g
uptake in heart ([2]; 60 min p.i.): 0.2 ± 0.02 % ID/g
uptake in kidney ([2]; 60 min p.i.): 48 ± 5 % ID/g
uptake in large int. ([2]; 60 min p.i.): 0.5 ± 0.1 % ID/g
uptake in liver ([2]; 60 min p.i.): 5.8 ± 0.6 % ID/g
uptake in lung ([2]; 60 min p.i.): 0.5 ± 0.1 % ID/g
uptake in muscle ([2]; 60 min p.i.): 0.5 ± 0.7 % ID/g
uptake in small int. ([2]; 60 min p.i.): 0.6 ± 0.2 % ID/g
uptake in spleen ([2]; 60 min p.i.): 7.2 ± 1.6 % ID/g
uptake in stomach ([2]; 60 min p.i.): 0.25 ± 0.1 % ID/g
uptake in PC-3 PIP tumor ([2]; 2 h p.i.): 3.7 ± 1.2 % ID/g
uptake in PC-3 flu tumor ([2]; 2 h p.i.): 0.25 ± 0.1 % ID/g
uptake in heart ([2]; 2 h p.i.): 0.15 ± 0.05 % ID/g
uptake in kidney ([2]; 2 h p.i.): 29 ± 12 % ID/g
uptake in large int. ([2]; 2 h p.i.): 0.2 ± 0.1 % ID/g
uptake in liver ([2]; 2 h p.i.): 11.7 ± 7.0 % ID/g
uptake in muscle ([2]; 2 h p.i.): 0.2 ± 0.1 % ID/g
uptake in pancreas ([2]; 2 h p.i.): 0.15 ± 0.03 % ID/g
uptake in spleen ([2]; 2 h p.i.): 4.4 ± 1.2 % ID/g
uptake in bladder ([2]; 5 h p.i.): 5.2 ± 8.9 % ID/g
uptake in blood ([2]; 5 h p.i.): 0.03 ± 0.00 % ID/g
uptake in heart ([2]; 5 h p.i.): 0.03 ± 0.01 % ID/g
uptake in kidney ([2]; 5 h p.i.): 14 ± 9 % ID/g
uptake in large int. ([2]; 5 h p.i.): 0.6 ± 0.6 % ID/g
uptake in pancreas ([2]; 5 h p.i.): 0.05 ± 0.03 % ID/g
uptake in stomach ([2]; 5 h p.i.): 0.04 ± 0.02 % ID/g
